ChEMBL document CHEMBL4219077, “Methyllucidone inhibits STAT3 activity by regulating the expression of the protein tyrosine phosphatase MEG2 in DU145 prostate carcinoma cells” (Bioorg Med Chem Lett, 2018)
Active and inactive are the calls of the source. The rule behind the calls is not given here.

Tests used:
[1] = test system: DU-145; assay: Cell cycle arrest in human DU145 cells assessed as accumulation at G2/M phase at 10 uM after 12 hrs by FACS analysis (reference value: 24%); format: functional
[2] = test system: DU-145; assay: Cell cycle arrest in human DU145 cells assessed as accumulation at G2/M phase at 10 uM after 24 hrs by FACS analysis (reference value: 24%); format: functional
[3] = biological target: T1, PTPN9/STAT3 (Homo sapiens) (UniProt P40763+P43378); assay: Modulation of MEG2 in human LNCAP cells assessed as inhibition of IL-6-stimulated STAT3 phosphorylation at 10 uM pretreated for 12 hrs followed by IL-6 stimulation for 30 mins by Western blot method; format: cell-based
T1 sequence (P40763 2-770 limits assumed): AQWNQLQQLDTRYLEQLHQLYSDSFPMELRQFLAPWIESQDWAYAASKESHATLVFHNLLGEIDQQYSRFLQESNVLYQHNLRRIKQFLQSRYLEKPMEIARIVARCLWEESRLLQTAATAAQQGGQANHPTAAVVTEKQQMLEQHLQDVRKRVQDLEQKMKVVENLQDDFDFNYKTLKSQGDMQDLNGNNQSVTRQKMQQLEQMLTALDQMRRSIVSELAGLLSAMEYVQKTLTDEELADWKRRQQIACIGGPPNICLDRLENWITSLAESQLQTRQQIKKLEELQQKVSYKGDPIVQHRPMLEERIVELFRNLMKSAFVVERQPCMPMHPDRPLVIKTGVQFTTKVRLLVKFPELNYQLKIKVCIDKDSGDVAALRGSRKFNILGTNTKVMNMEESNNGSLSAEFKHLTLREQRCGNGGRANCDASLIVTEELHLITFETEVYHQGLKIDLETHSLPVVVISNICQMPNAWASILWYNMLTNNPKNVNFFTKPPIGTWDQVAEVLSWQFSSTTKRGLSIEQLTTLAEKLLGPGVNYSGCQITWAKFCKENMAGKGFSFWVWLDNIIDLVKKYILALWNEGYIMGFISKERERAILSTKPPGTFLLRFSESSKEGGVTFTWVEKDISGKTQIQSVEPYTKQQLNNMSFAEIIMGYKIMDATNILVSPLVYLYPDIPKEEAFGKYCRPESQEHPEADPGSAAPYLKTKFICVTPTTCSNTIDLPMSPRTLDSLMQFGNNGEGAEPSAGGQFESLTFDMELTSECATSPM
T1 sequence (P43378 whole entry partner): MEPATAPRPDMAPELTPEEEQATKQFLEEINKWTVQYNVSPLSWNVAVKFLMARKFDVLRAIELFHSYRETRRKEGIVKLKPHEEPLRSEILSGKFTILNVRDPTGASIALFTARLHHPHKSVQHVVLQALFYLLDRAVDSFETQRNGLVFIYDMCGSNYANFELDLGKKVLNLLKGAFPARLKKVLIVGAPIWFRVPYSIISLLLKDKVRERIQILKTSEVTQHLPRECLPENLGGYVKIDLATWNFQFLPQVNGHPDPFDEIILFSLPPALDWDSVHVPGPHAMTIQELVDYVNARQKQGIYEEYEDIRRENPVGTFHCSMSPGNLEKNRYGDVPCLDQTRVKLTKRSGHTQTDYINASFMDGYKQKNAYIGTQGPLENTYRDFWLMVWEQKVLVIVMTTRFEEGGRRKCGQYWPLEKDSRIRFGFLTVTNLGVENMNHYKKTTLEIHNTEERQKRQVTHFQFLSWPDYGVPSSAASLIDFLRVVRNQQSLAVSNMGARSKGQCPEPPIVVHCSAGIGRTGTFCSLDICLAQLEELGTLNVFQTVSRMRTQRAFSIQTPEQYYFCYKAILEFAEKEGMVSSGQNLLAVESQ

[4] = test system: DU-145; assay: Increase in MEG2 protein expression in human DU145 cells at 10 uM by Western blot method; format: functional, cell-based; conditions: TDE = time-dependent effect
[5] = biological target: T1, PTPN9/STAT3 (Homo sapiens); assay: Modulation of MEG2 in human DU145 cells assessed as inhibition of STAT3 activation by measuring down regulation of Bcl2 level at 10 uM after 24 hrs by Western blot method; format: cell-based
[6] = test system: DU-145; assay: Cell cycle arrest in human DU145 cells assessed as apoptotic cells at 10 uM after 24 hrs by FACS analysis (reference value: 8.1%); format: functional
[7] = biological target: Signal transducer and activator of transcription 3 (Homo sapiens) (UniProt P40763); assay: Inhibition of STAT3 phosphorylation at Tyr-705 residue in human DU145 cells harboring SHP2 siRNA at 10 uM after 12 hrs by Western blot method; format: cell-based
Signal transducer and activator of transcription 3 (Homo sapiens), sequence (P40763 whole entry): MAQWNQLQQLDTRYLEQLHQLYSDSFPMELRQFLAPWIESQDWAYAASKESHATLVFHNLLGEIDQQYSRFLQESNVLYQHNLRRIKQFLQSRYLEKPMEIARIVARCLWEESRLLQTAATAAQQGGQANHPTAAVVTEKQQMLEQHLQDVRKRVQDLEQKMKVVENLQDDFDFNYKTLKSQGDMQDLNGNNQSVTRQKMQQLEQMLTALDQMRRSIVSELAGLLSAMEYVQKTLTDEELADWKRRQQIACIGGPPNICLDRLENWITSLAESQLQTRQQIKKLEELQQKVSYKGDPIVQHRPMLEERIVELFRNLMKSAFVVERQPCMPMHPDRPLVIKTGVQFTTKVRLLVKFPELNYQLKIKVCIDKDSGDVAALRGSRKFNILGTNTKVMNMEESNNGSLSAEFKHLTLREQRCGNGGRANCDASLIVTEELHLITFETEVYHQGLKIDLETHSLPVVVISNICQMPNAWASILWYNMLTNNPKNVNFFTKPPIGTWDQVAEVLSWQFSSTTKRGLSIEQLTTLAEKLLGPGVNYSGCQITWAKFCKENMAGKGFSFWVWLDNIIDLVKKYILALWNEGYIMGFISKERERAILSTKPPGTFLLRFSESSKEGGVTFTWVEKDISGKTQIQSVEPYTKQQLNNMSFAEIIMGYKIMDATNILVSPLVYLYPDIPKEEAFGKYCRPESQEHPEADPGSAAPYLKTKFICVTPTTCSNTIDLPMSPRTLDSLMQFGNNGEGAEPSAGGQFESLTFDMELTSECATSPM

[8] = test system: DU-145; assay: Cell cycle arrest in human DU145 cells assessed as accumulation at S phase at 10 uM after 24 hrs by FACS analysis (reference value: 7.7%); format: functional
[9] = biological target: Protein farnesyltransferase (Homo sapiens, UniProt P49354+P49356); assay: Inhibition of FPTase (unknown origin); format: protein-complex assay
[10] = biological target: T1, PTPN9/STAT3 (Homo sapiens); assay: Modulation of MEG2 in human DU145 cells assessed as inhibition of STAT3 activation by measuring down regulation of Cyclin D1 level at 10 uM after 24 hrs by Western blot method; format: cell-based
[11] = biological target: T2, Signal transducer and activator of transcription 5A (Homo sapiens) (UniProt P42229); assay: Inhibition of STAT5 phosphorylation in human DU145 cells after 24 hrs by Western blot method; format: cell-based
T2 sequence (whole entry): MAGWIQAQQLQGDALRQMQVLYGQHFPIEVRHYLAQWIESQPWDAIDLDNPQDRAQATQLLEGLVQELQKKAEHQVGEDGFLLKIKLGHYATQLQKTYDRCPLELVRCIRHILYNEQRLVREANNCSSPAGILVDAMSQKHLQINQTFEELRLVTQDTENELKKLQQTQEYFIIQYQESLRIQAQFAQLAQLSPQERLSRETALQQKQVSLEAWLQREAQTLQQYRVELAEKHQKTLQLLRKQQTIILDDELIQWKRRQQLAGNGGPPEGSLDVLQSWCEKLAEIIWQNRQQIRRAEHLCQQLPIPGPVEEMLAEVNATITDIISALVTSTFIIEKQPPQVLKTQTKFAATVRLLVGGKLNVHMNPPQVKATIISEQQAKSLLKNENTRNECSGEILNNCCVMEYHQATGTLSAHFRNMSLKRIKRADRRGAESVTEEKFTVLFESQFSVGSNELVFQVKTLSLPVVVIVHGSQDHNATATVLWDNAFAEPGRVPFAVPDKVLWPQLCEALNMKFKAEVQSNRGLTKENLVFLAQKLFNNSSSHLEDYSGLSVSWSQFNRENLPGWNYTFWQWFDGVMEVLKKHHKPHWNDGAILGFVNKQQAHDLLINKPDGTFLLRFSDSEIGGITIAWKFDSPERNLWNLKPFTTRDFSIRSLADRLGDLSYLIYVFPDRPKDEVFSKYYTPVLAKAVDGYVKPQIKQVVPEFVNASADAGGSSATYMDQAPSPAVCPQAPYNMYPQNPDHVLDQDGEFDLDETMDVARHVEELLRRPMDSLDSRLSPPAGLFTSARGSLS

[12] = biological target: T1, PTPN9/STAT3 (Homo sapiens); assay: Modulation of MEG2 in human DU145 cells assessed as inhibition of STAT3 activation by measuring down regulation of Cyclin A level at 10 uM after 24 hrs by Western blot method; format: cell-based
[13] = test system: DU-145; assay: Cell cycle arrest in human DU145 cells assessed as accumulation at S phase at 10 uM after 12 hrs by FACS analysis (reference value: 7.7%); format: functional
[14] = test system: DU-145; assay: Effect on total STAT3 protein expression in human DU145 cells up to 20 uM after 24 hrs by Western blot method; format: ADME, cell-based; conditions: du-145, 24 h
[15] = test system: LNCaP; assay: Antiproliferative activity against human LNCAP cells by WST1 assay; format: functional, cell-based
[16] = test system: DU-145; assay: Increase in cleaved caspase-3 level in human DU145 cells up to 10 uM after 24 hrs by Western blot method; format: functional, cell-based
[17] = biological target: T3, Signal transducer and activator of transcription 1-alpha/beta (Homo sapiens) (UniProt P42224); assay: Inhibition of STAT1 phosphorylation in human DU145 cells after 24 hrs by Western blot method; format: cell-based
T3 sequence (whole entry): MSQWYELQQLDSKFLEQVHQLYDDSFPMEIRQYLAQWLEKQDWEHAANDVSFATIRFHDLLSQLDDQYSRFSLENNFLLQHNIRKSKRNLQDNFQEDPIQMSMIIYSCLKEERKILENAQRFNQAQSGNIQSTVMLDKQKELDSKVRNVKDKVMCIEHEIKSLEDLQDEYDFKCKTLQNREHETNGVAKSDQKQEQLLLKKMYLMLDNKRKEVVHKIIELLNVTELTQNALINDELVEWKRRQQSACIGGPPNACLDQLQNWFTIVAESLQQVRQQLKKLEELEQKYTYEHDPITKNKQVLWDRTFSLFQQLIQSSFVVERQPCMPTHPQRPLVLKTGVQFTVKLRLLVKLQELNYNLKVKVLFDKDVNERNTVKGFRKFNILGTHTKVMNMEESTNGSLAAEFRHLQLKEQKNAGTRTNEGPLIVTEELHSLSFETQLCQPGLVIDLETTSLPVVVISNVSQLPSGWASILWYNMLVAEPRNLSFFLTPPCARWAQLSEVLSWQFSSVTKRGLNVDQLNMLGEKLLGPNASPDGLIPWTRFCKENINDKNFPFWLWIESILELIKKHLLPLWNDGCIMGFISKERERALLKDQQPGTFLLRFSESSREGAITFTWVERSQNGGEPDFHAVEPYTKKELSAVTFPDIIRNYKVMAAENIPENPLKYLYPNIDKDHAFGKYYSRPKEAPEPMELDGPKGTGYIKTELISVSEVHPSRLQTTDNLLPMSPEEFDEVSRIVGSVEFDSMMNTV

[18] = test system: PC-3; assay: Antiproliferative activity against human PC3 cells by WST1 assay; format: functional, cell-based
[19] = biological target: Janus Kinase (JAK) (Homo sapiens) (UniProt P52333+P23458+O60674+P29597); assay: Inhibition of JAK phosphorylation (unknown origin); format: protein assay
[20] = test system: DU-145; assay: Cell cycle arrest in human DU145 cells assessed as accumulation at G0/G1 phase at 10 uM after 24 hrs by FACS analysis (reference value: 41.1%); format: functional
[21] = test system: DU-145; assay: Antiproliferative activity against human DU145 cells after 48 hrs by WST1 assay; format: functional; conditions: DU-145, 48 h
[22] = test system: DU-145; assay: Cell cycle arrest in human DU145 cells assessed as accumulation at G0/G1 phase at 10 uM after 48 hrs by FACS analysis (reference value: 41.1%); format: functional
[23] = test system: DU-145; assay: Cell cycle arrest in human DU145 cells assessed as accumulation at G0/G1 phase at 10 uM after 12 hrs by FACS analysis (reference value: 41.1%); format: functional
[24] = test system: DU-145; assay: Cell cycle arrest in human DU145 cells assessed as accumulation at G2/M phase at 10 uM after 48 hrs by FACS analysis (reference value: 24%); format: functional
[25] = test system: DU-145; assay: Induction of apoptosis in human DU145 cells assessed as decrease in procaspase-3 level up to 10 uM by Western blot method; format: functional, cell-based
[26] = biological target: T1, PTPN9/STAT3 (Homo sapiens); assay: Modulation of MEG2 in human DU145 cells assessed as inhibition of STAT3 phosphorylation at Tyr-705 residue at 20 uM after 24 hrs by Western blot method; format: cell-based
[27] = biological target: T1, PTPN9/STAT3 (Homo sapiens); assay: Modulation of MEG2 in human HCT116 cells harboring pSTAT3 (unknown origin)-TA-Luc assessed as inhibition of STAT3 transcriptional activity after 24 hrs by luciferase reporter gene assay; format: cell-based
[28] = biological target: T1, PTPN9/STAT3 (Homo sapiens); assay: Modulation of MEG2 in human DU145 cells assessed as inhibition of STAT3 activation by measuring down regulation of Mcl1 level at 10 uM after 24 hrs by Western blot method; format: cell-based
[29] = biological target: Proto-oncogene tyrosine-protein kinase Src (Homo sapiens) (UniProt P12931); assay: Inhibition of SRC phosphorylation (unknown origin)
Proto-oncogene tyrosine-protein kinase Src (Homo sapiens), sequence (P12931 2-536 limits assumed): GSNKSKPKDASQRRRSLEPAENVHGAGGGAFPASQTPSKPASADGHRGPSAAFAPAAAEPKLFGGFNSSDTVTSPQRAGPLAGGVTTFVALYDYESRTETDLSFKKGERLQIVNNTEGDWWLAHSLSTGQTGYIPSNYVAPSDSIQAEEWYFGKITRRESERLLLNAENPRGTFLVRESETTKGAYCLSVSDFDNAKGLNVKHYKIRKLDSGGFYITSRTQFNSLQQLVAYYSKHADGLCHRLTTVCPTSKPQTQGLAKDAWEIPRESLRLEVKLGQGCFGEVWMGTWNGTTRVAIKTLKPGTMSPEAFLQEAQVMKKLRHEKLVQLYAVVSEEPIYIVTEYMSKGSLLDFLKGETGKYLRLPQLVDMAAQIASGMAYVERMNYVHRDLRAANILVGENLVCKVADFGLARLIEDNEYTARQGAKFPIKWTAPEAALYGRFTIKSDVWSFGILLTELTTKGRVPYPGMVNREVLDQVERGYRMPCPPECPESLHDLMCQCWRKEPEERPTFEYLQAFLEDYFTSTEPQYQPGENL

[30] = test system: DU-145; assay: Cell cycle arrest in human DU145 cells assessed as accumulation at S phase at 10 uM after 48 hrs by FACS analysis (reference value: 7.7%); format: functional
[31] = biological target: T1, PTPN9/STAT3 (Homo sapiens); assay: Modulation of MEG2 in human DU145 cells assessed as inhibition of STAT3 phosphorylation at Tyr-705 residue at 10 uM after 24 hrs in presence of phosphatase inhibitor Na3VO4 by Western blot method; format: cell-based
[32] = test system: DU-145; assay: Cell cycle arrest in human DU145 cells assessed as apoptotic cells at 10 uM after 48 hrs by FACS analysis (reference value: 8.1%); format: functional
[33] = test system: DU-145; assay: Cell cycle arrest in human DU145 cells assessed as apoptotic cells at 10 uM after 12 hrs by FACS analysis (reference value: 8.1%); format: functional
[34] = biological target: Signal transducer and activator of transcription 3 (Homo sapiens) (UniProt P40763); assay: Inhibition of STAT3 phosphorylation at Tyr-705 residue in human DU145 cells harboring MEG2 siRNA at 10 uM after 12 hrs by Western blot method; format: cell-based
[35] = biological target: T1, PTPN9/STAT3 (Homo sapiens); assay: Modulation of MEG2 in human DU145 cells assessed as inhibition of STAT3 activation by measuring down regulation of survivin level at 10 uM after 24 hrs by Western blot method; format: cell-based

## COC1=CC(=O)/C(=C(\C=C\c2ccccc2)OC)C1=O
[1]
  Activity: 34%
[2]
  Activity: 23.6%
[3]
  inhibition: Active
[4]
  Activity: Tde
[5]
  inhibition: Active
[6]
  Activity: 8.5%
[7]
  inhibition: Active
[8]
  Activity: 4.1%
[9]
  IC50: > 40 µM
[10]
  inhibition: Active
[11]
  inhibition: inactive
[12]
  inhibition: Active
[13]
  Activity: 7.8%
[14]
  Activity: Non-Toxic
[15]
  Activity: inactive
[16]
  Activity: inactive
[17]
  inhibition: inactive
[18]
  Activity: inactive
[19]
  inhibition: inactive
[20]
  Activity: 50.3%
[21]
  GI50: 15 µM
[22]
  Activity: 36.7%
[23]
  Activity: 43.5%
[24]
  Activity: 31.6%
[25]
  Activity: Active
[26]
  inhibition: > 90%
[27]
  inhibition: Dose-dependent effect
[28]
  inhibition: Active
[29]
  inhibition: inactive
[30]
  Activity: 5.6%
[31]
  inhibition: inactive
[32]
  Activity: 20.8%
[33]
  Activity: 4.5%
[34]
  inhibition: inactive
[35]
  inhibition: Active
